Measurements published in patent US9932340B2, “Substituted indoles” (AbbVie Inc., priority 2014, dated 2018).

Target: SUV420H1 enzyme (Homo sapiens, UniProt Q4FZB7)
Experiment: TR-FRET SAH SUV420H1 enzyme inhibition assay
Type: biochemical
Conditions: Histone Peptide H4(8-30)me1 and SAM, overnight at room temp, TR-FRET detection of SAH, read-out: TR-FRET SAH_SUV420H1 IC50
How it was run: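 SUV420H1 (90 nM) preincubated 30 min with compound (3-fold dilutions, 50 to 0.00075 μM), then H4(8-30)me1 peptide 5 nM and SAM 4 nM added, overnight at room temp. SAH product detected by TR-FRET with Tb anti-SAH antibody and Oregon Green-SAH in RIPA buffer, 4 h; IC50 from Hill fit, asymptotes fixed 0-100%.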

SUV420H1 enzyme, sequence (Q4FZB7 whole entry): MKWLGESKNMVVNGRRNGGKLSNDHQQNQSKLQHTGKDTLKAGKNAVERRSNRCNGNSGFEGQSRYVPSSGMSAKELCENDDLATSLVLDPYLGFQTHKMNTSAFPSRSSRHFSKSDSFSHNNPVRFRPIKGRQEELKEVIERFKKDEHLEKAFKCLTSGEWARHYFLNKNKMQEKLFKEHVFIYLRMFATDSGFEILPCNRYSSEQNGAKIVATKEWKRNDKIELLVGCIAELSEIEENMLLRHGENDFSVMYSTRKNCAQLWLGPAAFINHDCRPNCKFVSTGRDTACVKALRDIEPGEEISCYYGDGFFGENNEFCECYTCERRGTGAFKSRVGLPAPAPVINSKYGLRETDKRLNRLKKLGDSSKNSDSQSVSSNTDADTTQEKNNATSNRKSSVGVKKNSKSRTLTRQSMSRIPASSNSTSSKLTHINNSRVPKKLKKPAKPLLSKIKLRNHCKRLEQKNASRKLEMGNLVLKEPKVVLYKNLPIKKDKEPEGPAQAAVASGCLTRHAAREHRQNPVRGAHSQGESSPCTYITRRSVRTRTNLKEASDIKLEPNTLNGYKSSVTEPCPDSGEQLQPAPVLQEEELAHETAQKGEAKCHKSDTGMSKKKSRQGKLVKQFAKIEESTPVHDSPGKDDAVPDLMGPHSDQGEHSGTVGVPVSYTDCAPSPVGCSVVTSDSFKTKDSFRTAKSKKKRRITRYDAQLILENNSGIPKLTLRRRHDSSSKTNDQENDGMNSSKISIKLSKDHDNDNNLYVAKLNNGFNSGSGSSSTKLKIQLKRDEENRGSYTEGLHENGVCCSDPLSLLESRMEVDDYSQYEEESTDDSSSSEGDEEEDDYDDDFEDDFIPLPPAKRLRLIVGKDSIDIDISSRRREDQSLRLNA

IC50 [nM]	SMILES
101	Cc1noc(C)c1C(=O)NCc1cc2cc(-c3ccc(NS(C)(=O)=O)cc3)cc(Cn3cnc4c(N)ncnc43)c2[nH]1 [Example 174, N-[(7-[(6-amino-9H-purin-9-yl)methyl]-5-{4-[(methylsulfonyl)amino]phenyl}-1H-indol-2-yl)methyl]-3,5-dimethyl-1,2-oxazole-4-carboxamide]
82.8	Cc1noc(C)c1C(=O)NCc1cc2cc(-c3ccc(CC#N)cc3)cc(Cn3cnc4c(N)ncnc43)c2[nH]1 [Example 175, N-({7-[(6-amino-9H-purin-9-yl)methyl]-5-[4-(cyanomethyl)phenyl]-1H-indol-2-yl}methyl)-3,5-dimethyl-1,2-oxazole-4-carboxamide]
106	Cc1noc(C)c1C(=O)NCc1cc2cc(-c3cccc(C(=O)N(C)C)c3)cc(Cn3cnc4c(N)ncnc43)c2[nH]1 [Example 177, N-({7-[(6-amino-9H-purin-9-yl)methyl]-5-[3-(dimethylcarbamoyl)phenyl]-1H-indol-2-yl}methyl)-3,5-dimethyl-1,2-oxazole-4-carboxamide]
2860	CCc1oncc1C(=O)NCc1cc2cc(Cl)cc(Cn3cnc4c(N)ncnc43)c2[nH]1 [Example 181, N-({7-[(6-amino-9H-purin-9-yl)methyl]-5-chloro-1H-indol-2-yl}methyl)-5-ethyl-1,2-oxazole-4-carboxamide]
5200	Cc1cc(C(=O)NCc2cc3cc(Cl)cc(Cn4cnc5c(N)ncnc54)c3[nH]2)nn1C [Example 182, N-({7-[(6-amino-9H-purin-9-yl)methyl]-5-chloro-1H-indol-2-yl}methyl)-1,5-dimethyl-1H-pyrazole-3-carboxamide]
1780	Cc1cc(C(=O)NCc2cc3cc(Cl)cc(Cn4cnc5c(N)ncnc54)c3[nH]2)n(C)n1 [Example 183, N-({7-[(6-amino-9H-purin-9-yl)methyl]-5-chloro-1H-indol-2-yl}methyl)-1,3-dimethyl-1H-pyrazole-5-carboxamide]
840	Cc1nn(C)cc1C(=O)NCc1cc2cc(Cl)cc(Cn3cnc4c(N)ncnc43)c2[nH]1 [Example 184, N-({7-[(6-amino-9H-purin-9-yl)methyl]-5-chloro-1H-indol-2-yl}methyl)-1,3-dimethyl-1H-pyrazole-4-carboxamide]
3360	Nc1ncnc2c1ncn2Cc1cc(Cl)cc2cc(CNC(=O)c3cnoc3C3CC3)[nH]c12 [Example 189, N-({7-[(6-amino-9H-purin-9-yl)methyl]-5-chloro-1H-indol-2-yl}methyl)-5-cyclopropyl-1,2-oxazole-4-carboxamide]
2980	Cn1nc(C(=O)NCc2cc3cc(Cl)cc(Cn4cnc5c(N)ncnc54)c3[nH]2)c2c1CCC2 [Example 191, N-({7-[(6-amino-9H-purin-9-yl)methyl]-5-chloro-1H-indol-2-yl}methyl)-1-methyl-1,4,5,6-tetrahydrocyclopenta[c]pyrazole-3-carboxamide]
20000	Nc1ncnc2c1ncn2Cc1cc(Cl)cc2cc(CNC(=O)c3cnccn3)[nH]c12 [Example 193, N-({7-[(6-amino-9H-purin-9-yl)methyl]-5-chloro-1H-indol-2-yl}methyl)pyrazine-2-carboxamide]
1950	Nc1ncnc2c1ncn2Cc1cc(Cl)cc2cc(C(N)c3ccccc3)[nH]c12 (stereo not shown) [Example 194, 9-({2-[amino(phenyl)methyl]-5-chloro-1H-indol-7-yl}methyl)-9H-purin-6-amine]
> 50000	Nc1ncnc2c1ncn2Cc1cc(Cl)cc2cc(CNC(=O)c3ccccn3)[nH]c12 [Example 195, N-({7-[(6-amino-9H-purin-9-yl)methyl]-5-chloro-1H-indol-2-yl}methyl)pyridine-2-carboxamide]
58.9	Cc1nnccc1C(=O)NCc1cc2cc(C3=CCC(F)(F)CC3)cc(Cn3cnc4c(N)ncnc43)c2[nH]1 [Example 201, N-({7-[(6-amino-9H-purin-9-yl)methyl]-5-(4,4-difluorocyclohex-1-en-1-yl)-1H-indol-2-yl}methyl)-3-methylpyridazine-4-carboxamide]
53.2	Cc1nnccc1C(=O)NCc1cc2cc(C3=CCN(C(=O)OC(C)(C)C)CC3)cc(Cn3cnc4c(N)ncnc43)c2[nH]1 [Example 204, tert-butyl 4-{7-[(6-amino-9H-purin-9-yl)methyl]-2-({[(3-methylpyridazin-4-yl)carbonyl]amino}methyl)-1H-indol-5-yl}-3,6-dihydropyridine-1(2H)-carboxylate]

Further lines, the compound ahead of its results:

SMILES	IC50 [nM]
Cc1noc(C)c1C(=O)NCc1cc2cc(-c3ccc(C(=O)N(C)C)cc3)cc(Cn3cnc4c(N)ncnc43)c2[nH]1 [Example 176, N-({7-[(6-amino-9H-purin-9-yl)methyl]-5-[4-(dimethylcarbamoyl)phenyl]-1H-indol-2-yl}methyl)-3,5-dimethyl-1,2-oxazole-4-carboxamide]	87.5
Cc1noc(C)c1C(=O)NCc1cc2cc(-c3cccc(C(=O)NC4CC4)c3)cc(Cn3cnc4c(N)ncnc43)c2[nH]1 [Example 178, N-({7-[(6-amino-9H-purin-9-yl)methyl]-5-[3-(cyclopropylcarbamoyl)phenyl]-1H-indol-2-yl}methyl)-3,5-dimethyl-1,2-oxazole-4-carboxamide]	116
Cc1noc(C)c1C(=O)NCc1cc2cc(-c3cccc(N4CCOCC4)c3)cc(Cn3cnc4c(N)ncnc43)c2[nH]1 [Example 179, N-({7-[(6-amino-9H-purin-9-yl)methyl]-5-[3-(morpholin-4-yl)phenyl]-1H-indol-2-yl}methyl)-3,5-dimethyl-1,2-oxazole-4-carboxamide]	365
Cc1noc(C)c1C(=O)NCc1cc2cc(-c3cccc(C(=O)N4CCOCC4)c3)cc(Cn3cnc4c(N)ncnc43)c2[nH]1 [Example 180, N-({7-[(6-amino-9H-purin-9-yl)methyl]-5-[3-(morpholin-4-ylcarbonyl)phenyl]-1H-indol-2-yl}methyl)-3,5-dimethyl-1,2-oxazole-4-carboxamide]	130
CCc1onc(C)c1C(=O)NCc1cc2cc(Cl)cc(Cn3cnc4c(N)ncnc43)c2[nH]1 [Example 185, N-({7-[(6-amino-9H-purin-9-yl)methyl]-5-chloro-1H-indol-2-yl}methyl)-5-ethyl-3-methyl-1,2-oxazole-4-carboxamide]	691
CCc1noc(C)c1C(=O)NCc1cc2cc(Cl)cc(Cn3cnc4c(N)ncnc43)c2[nH]1 [Example 186, N-({7-[(6-amino-9H-purin-9-yl)methyl]-5-chloro-1H-indol-2-yl}methyl)-3-ethyl-5-methyl-1,2-oxazole-4-carboxamide]	263
CC(C)c1oncc1C(=O)NCc1cc2cc(Cl)cc(Cn3cnc4c(N)ncnc43)c2[nH]1 [Example 187, N-({7-[(6-amino-9H-purin-9-yl)methyl]-5-chloro-1H-indol-2-yl}methyl)-5-(propan-2-yl)-1,2-oxazole-4-carboxamide]	1870
CCn1nc(C)c(C(=O)NCc2cc3cc(Cl)cc(Cn4cnc5c(N)ncnc54)c3[nH]2)c1C [Example 188, N-({7-[(6-amino-9H-purin-9-yl)methyl]-5-chloro-1H-indol-2-yl}methyl)-1-ethyl-3,5-dimethyl-1H-pyrazole-4-carboxamide]	507
Cc1noc(C2CC2)c1C(=O)NCc1cc2cc(Cl)cc(Cn3cnc4c(N)ncnc43)c2[nH]1 [Example 190, N-({7-[(6-amino-9H-purin-9-yl)methyl]-5-chloro-1H-indol-2-yl}methyl)-5-cyclopropyl-3-methyl-1,2-oxazole-4-carboxamide]	910
Nc1ncnc2c1ncn2Cc1cc(Cl)cc2cc(CNC(=O)c3cnn4c3CCCC4)[nH]c12 [Example 192, N-({7-[(6-amino-9H-purin-9-yl)methyl]-5-chloro-1H-indol-2-yl}methyl)-4,5,6,7-tetrahydropyrazolo[1,5-a]pyridine-3-carboxamide]	2140
Nc1ncnc2c1ncn2Cc1cc(Cl)cc2cc(CNC(=O)c3cccnc3)[nH]c12 [Example 196, N-({7-[(6-amino-9H-purin-9-yl)methyl]-5-chloro-1H-indol-2-yl}methyl)pyridine-3-carboxamide]	905
Nc1ncnc2c1ncn2Cc1cc(Cl)cc2cc(CNC(=O)c3cccc(O)n3)[nH]c12 [Example 197, N-({7-[(6-amino-9H-purin-9-yl)methyl]-5-chloro-1H-indol-2-yl}methyl)-6-hydroxypyridine-2-carboxamide]	1070
Nc1ncnc2c1ncn2Cc1cc(Cl)cc2cc(CNC(=O)c3ccc[nH]c3=O)[nH]c12 [Example 198, N-({7-[(6-amino-9H-purin-9-yl)methyl]-5-chloro-1H-indol-2-yl}methyl)-2-oxo-1,2-dihydropyridine-3-carboxamide]	12600
Cc1nnccc1C(=O)NCc1cc2cc(Cl)cc(Cn3cnc4c(N)ncnc43)c2[nH]1 [Example 199, N-({7-[(6-amino-9H-purin-9-yl)methyl]-5-chloro-1H-indol-2-yl}methyl)-3-methylpyridazine-4-carboxamide]	93.9
Cc1nnccc1C(=O)NCc1cc2cc(C3=CCNCC3)cc(Cn3cnc4c(N)ncnc43)c2[nH]1 [Example 200, N-({7-[(6-amino-9H-purin-9-yl)methyl]-5-(1,2,3,6-tetrahydropyridin-4-yl)-1H-indol-2-yl}methyl)-3-methylpyridazine-4-carboxamide]	100
Cc1nnccc1C(=O)NCc1cc2cc(C3=CCN(S(C)(=O)=O)CC3)cc(Cn3cnc4c(N)ncnc43)c2[nH]1 [Example 202, N-({7-[(6-amino-9H-purin-9-yl)methyl]-5-[1-(methylsulfonyl)-1,2,3,6-tetrahydropyridin-4-yl]-1H-indol-2-yl}methyl)-3-methylpyridazine-4-carboxamide]	64.1
CC(=O)N1CC=C(c2cc(Cn3cnc4c(N)ncnc43)c3[nH]c(CNC(=O)c4ccnnc4C)cc3c2)CC1 [Example 203, N-({5-(1-acetyl-1,2,3,6-tetrahydropyridin-4-yl)-7-[(6-amino-9H-purin-9-yl)methyl]-1H-indol-2-yl}methyl)-3-methylpyridazine-4-carboxamide]	27.7
